Experimental data taken from patent US20040038855A1 (priority 1999, published 2004).
Where two headings read alike, the source gives them in different places.

Columns and labels:
rat MCH1 receptor = biological target: T1, rat MCH1 receptor (Rattus norvegicus, UniProt P97639); assay: Binding affinity (Ki) at the rat MCH1 receptor
T1 construct: expressed in transfected cells

[1] = biological target: T2, human Dopamine D2 receptor (Homo sapiens, UniProt P14416); assay: Binding affinity at the human dopamine D2 receptor; settings: Table 3c; read-out: hD2 Ki
T2 construct: purchased BioSignal, Inc. (Montreal, Canada)
Procedure, shortened: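 Cell membranes carrying the recombinant human dopamine D1 or D2 receptor served as the binding source. The adrenergic α2A and dopamine D5 measurements used receptor binding protocols.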

[2] = biological target: T3, human Histamine H1 receptor (Homo sapiens, UniProt P35367); assay: Binding affinity at the human histamine H1 receptor; settings: Table 3c; read-out: hH1 Ki
T3 construct: expressed in transfected cells
Procedure, shortened: (§1)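 Receptor binding read-out throughout; membranes expressing human D1 or D2 receptor were used for those two targets.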

[3] = biological target: T4, human Alpha-1a Adrenergic receptor (Homo sapiens, UniProt P35348); assay: Binding affinity at the human alpha-1A adrenergic receptor; settings: Table 3c; read-out: hAlpha-1a Ki
T4 construct: expressed in transfected cells
T4 sequence (P35348 1-466): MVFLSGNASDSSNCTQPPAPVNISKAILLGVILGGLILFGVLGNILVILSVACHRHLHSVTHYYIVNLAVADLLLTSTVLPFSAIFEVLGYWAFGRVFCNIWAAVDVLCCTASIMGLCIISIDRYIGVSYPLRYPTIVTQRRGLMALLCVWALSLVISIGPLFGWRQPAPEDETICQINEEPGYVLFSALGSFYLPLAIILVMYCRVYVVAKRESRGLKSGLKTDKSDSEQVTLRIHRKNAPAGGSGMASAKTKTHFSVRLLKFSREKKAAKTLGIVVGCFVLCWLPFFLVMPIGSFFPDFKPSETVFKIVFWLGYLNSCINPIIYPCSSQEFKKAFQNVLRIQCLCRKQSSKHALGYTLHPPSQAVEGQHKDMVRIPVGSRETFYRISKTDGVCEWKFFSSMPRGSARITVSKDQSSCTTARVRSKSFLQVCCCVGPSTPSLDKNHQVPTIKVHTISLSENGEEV
Procedure, shortened: as §1

[4] = system: micturition reflex, conscious male Sprague Dawley rats; assay: Continuous Slow Transvesicular Infusion (CSTI) rat model; format: in vivo; parameters: key to Effect of MCH1 antagonist in the CSTI model: B = Produced an increase in bladder capacity in rats relative to baseline capacity; settings: bladder capacity, intragastric
Description: The effects of compounds on the micturition reflex were assessed in the “distension-induced rhythmic contraction” (DIRC), as described in previous publications (e.g. Maggi et al, 1987; Morikawa et al, 1992), and Continuous Slow Transvesicular Infusion (CSTI) models in rats. Male Sprague Dawley rats weighing approximately 300 g were used for the study. Rats were anaesthetized with pentobarbitone sodium (50 mg/kg, i.p). Through a median abdominal incision, bladder was exposed and a polyethylene cannula (PE 50) was introduced into the bladder through a small cut on the dome of the bladder and the cannula was secured with a purse string suture. The other end of the cannula was exteriorized subcutaneously at the dorsal neck area. Similarly, another cannula (PE 50) was introduced into the stomach through a paramedian abdominal incision with the free end exteriorized subcutaneously to the neck region. The surgical wounds were closed with silk 4-0 suture and the animal was allowed to recover with appropriate post surgical care. On the following day, the animal was placed in a rat restrainer. The open end of the bladder cannula was connected to a pressure transducer as well as infusion pump through a three-way stopcock. The bladder voiding cycles were initiated by continuous infusion of normal saline at the rate of 100 ul/min. The repetitive voiding contractions were recorded on a Power Lab on-line data acquisition software. After recording the basal voiding pattern for an hour, the test drug or vehicle was administered directly into stomach through the intragastric catheter and the voiding cycles were monitored for 5 hours. Micturition pressure and frequency were calculated before and after the treatment (at every 30 min interval) for each animal. Bladder capacity was calculated from the micturition frequency, based on the constant infusion of 100 ul/min. The effect of the test drug was expressed as a percentage of basal, pre-drug bladder capacity. WAY 100635 was used as positive control for comparison.

human MCH1 receptor [5] = biological target: T5, human MCH1 receptor (Homo sapiens, UniProt Q99705); assay: Saturation and competition binding of [3H]Compound 10, membranes of Cos-7 cells transfected with MCH1; parameters: expressed in transfected cells; host or cells: COS-7; settings: room temperature, 90 min; read-out: Kd (Scatchard analysis of saturation binding)
Description: Saturation equilibrium binding of [3H]Compound 10 to the human MCH1 receptor. Membrane preparations from Cos-7 cells transfected with MCH1 were incubated with varying concentrations of [3H]Compound 10 (SA: 56 Ci/mmol) at room temperature for 90 min, in a volume of 0.250 ml. The reaction was terminated by filtration in GF/C filters, and the radioactivity determined by scintillation counting. Non-specific binding was defined as the amount of radioactivity retained in the filter after incubating the reaction mixture in the presence of unlabeled Compound 10 ([…]).
Competition binding of [3H]Compound 10 to the human MCH1 receptor. […] The reaction was terminated by filtration in GF/C filters and the radioactivity bound to the membrane was determined by scintillation counting.
[3H]Compound 10 was tested for its ability to bind to membrane preparations of cells expressing the human MCH1 receptor.

human MCH1 receptor [6] = biological target: T5, human MCH1 receptor; format: cell-based; parameters: expressed in transfected cells; host or cells: COS-7; settings: agonist challenge
Description: Guidelines for cell preparation and assay of the second messenger inositol phosphate (IP) are described below for a typical protocol involving transiently transfected Cos-7 cells; For a 96 well microplate format assay, cells are plated at 70,000 cells per well and allowed to incubate for 24 hours after the transfection procedure. The cells are then labeled with 0.5 μCi [^3H]myo-inositol per micro-well over night at 37° C., 5% CO2. Immediately before the assay, the medium is removed and replaced with 90 μl PBS containing 10 mM LiCl. The plates are then incubated for 15 minutes at 37° C., […]. Following the incubation, the transfectants are challenged with agonist (10 μl/well; 10× concentration) for 30 minutes at 37° C., 5% CO2. The challenge is terminated and the cells lysed by the addition of 100 μl cold 5% v/v trichloroacetic acid (TCA), followed by an incubation at 4° C. for greater than 30 minutes. Total IPs are isolated from the lysate by ion exchange chromatography. Briefly, the lysed contents of the wells are transferred to a Multiscreen HV filter plate (Millipore) containing 100 μl Dowex AG1-X8 suspension (50% v/v, water:resin) (200-400 mesh, formate form). The filter plates are placed on a vacuum manifold to wash and elute the resin bed. Each well is first washed 2 times with 200 μl 5 mM myoinositol. Total [^3H]IPs are eluted with 75 μl of 1.2 M ammonium formate/0.1 M formic acid into Wallac 96-well plates. 200 μl of SuperMix scintillation cocktail is added to each well, mixed well, allowed to equilibrate and counted on a Micro Beta Trilux scintillation counter. (Note: The assay may be scaled to a 24 well format by simple adjustment of reagent volumes and employing individual chromatographic columns.)
The expression vector (pEXJ) containing the MCH1 cDNA was transfected by electroporation into Cos-7 cells in combination with an expression vector (pEXJ) containing the Gα16 subunit.

[7] = Examples 38-141, read-out: Ki (nM) rMCH1

T3 sequence (P35367 whole entry): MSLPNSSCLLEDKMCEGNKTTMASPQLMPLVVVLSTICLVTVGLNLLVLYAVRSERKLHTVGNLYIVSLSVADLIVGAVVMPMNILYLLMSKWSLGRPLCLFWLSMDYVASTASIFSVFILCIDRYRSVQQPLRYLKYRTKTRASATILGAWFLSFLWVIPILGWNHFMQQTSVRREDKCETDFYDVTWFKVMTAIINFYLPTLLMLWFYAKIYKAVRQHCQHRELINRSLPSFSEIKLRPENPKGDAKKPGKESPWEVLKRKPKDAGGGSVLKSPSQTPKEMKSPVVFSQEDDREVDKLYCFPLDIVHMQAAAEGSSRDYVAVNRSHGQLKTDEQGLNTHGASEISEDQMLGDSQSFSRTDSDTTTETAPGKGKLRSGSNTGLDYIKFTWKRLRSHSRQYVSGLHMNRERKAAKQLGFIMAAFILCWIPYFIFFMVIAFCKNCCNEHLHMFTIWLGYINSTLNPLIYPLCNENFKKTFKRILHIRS
T1 sequence (P97639 whole entry): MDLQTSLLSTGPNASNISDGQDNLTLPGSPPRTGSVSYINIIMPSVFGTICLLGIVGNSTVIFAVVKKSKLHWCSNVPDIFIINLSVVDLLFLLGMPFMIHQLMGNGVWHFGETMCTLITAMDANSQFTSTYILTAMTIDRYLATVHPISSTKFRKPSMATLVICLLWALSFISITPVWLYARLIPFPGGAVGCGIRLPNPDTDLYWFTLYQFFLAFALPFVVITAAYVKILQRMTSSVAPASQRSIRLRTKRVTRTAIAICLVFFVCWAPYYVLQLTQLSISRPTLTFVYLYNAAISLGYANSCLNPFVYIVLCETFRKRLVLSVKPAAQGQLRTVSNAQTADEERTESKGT
T2 sequence (P14416 whole entry): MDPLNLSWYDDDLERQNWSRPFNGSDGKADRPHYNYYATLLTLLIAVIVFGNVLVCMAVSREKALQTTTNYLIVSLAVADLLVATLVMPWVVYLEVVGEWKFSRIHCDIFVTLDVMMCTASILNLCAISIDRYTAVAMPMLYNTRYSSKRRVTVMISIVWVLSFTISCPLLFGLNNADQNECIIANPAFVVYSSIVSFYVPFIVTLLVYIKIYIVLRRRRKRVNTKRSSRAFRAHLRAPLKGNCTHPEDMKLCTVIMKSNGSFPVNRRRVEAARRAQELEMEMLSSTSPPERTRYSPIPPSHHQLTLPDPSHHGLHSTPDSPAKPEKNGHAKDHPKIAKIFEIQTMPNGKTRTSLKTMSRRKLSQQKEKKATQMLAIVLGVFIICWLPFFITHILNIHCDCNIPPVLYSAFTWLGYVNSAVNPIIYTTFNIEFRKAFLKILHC
T5 sequence (Q99705 whole entry): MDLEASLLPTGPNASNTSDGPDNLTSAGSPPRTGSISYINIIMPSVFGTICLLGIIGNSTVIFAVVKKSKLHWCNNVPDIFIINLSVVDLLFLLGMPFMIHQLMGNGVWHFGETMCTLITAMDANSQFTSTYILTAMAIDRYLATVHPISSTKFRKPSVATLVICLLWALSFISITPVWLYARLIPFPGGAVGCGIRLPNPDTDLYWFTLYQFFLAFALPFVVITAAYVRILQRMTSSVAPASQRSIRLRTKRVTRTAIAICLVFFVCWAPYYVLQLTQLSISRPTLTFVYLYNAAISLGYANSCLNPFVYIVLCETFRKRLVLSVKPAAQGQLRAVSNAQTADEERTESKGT

Ki (rat MCH1 receptor; [7]) [nM]	Ki (rat MCH1 receptor; Table 3c, read-out: rMCH1 Ki) [nM]	Ki [1] [nM]	Ki [2] [nM]	Ki [3] [nM]	Compound	Effect of MCH1 antagonist in the CSTI model [4]	Kd (human MCH1 receptor [5]) [nM]	dose-responsiveness of inositol phosphate formation (human MCH1 receptor [6])
0.23	0.23	3570	10800	21.9	COCC1=C(C(=O)OC)[C@H](c2ccc(F)c(F)c2)N(C(=O)NCCCN2CCC(c3cccc(NC(=O)C(C)C)c3)CC2)C(=O)N1 [Example 43, METHYL (4S)-4-(3,4-DIFLUOROPHENYL)-3-{[(3-{4-[3-(ISOBUTYRYLAMINO)PHENYL]-1-PIPERIDINYL}PROPYL)AMINO]CARBONYL}-6-(METHOXYMETHYL)-2-OXO-1,2,3,4-TETRAHYDRO-5-PYRIMIDINECARBOXYLATE]	B	–	–
2.8	2.8	862	461	19.4	CC(C)C(=O)Nc1cccc(C2CCN(CCCC(=O)c3ccc(Cl)cc3)CC2)c1 [Example 66]	B	–	–

The remaining lines, values behind:

Compound	Ki (rat MCH1 receptor; [7]) [nM]	Ki (rat MCH1 receptor; Table 3c, read-out: rMCH1 Ki) [nM]	Ki [1] [nM]	Ki [2] [nM]	Ki [3] [nM]	Effect of MCH1 antagonist in the CSTI model [4]	Kd (human MCH1 receptor [5]) [nM]	dose-responsiveness of inositol phosphate formation (human MCH1 receptor [6])
Cc1ccc(C(=O)CCCN2CCC(c3cccc(NC(=O)C(C)C)c3)CC2)cc1C [Example 58]	3.9	3.9	2840	700	32.1	B	–	–
COCC1=C(C(=O)OC)[C@H](c2ccc(F)c(F)c2)N(C(=O)NCCCN2CCC(c3cccc(NC(C)=O)c3)CC2)C(=O)N1 [[3H]Compound 10, TRITIATED METHYL (4S)-3-{[(3-{4-[3-(ACETYLAMINO)PHENYL]-1-PIPERIDINYL}PROPYL)AMINO]CARBONYL}-4-(3,4-DIFLUOROPHENYL)-6-(METHOXYMETHYL)-2-OXO-1,2,3,4-TETRAHYDRO-5-PYRIMIDINECARBOXYLATE]	–	–	–	–	–	–	0.18	–
O=C(CCCN1CCC(O)(c2ccc(Cl)cc2)CC1)c1ccc(F)cc1 [haloperidol]	–	–	–	–	–	–	–	No dose-responsiveness
dynorphin A1-13: compound tested for its ability to activate MCH1 (YGGFLRRIRPKLK)	–	–	–	–	–	–	–	No dose-responsiveness
